“Also recorded” adds a separate entry of the source.
How the values were obtained:
[1] = system: mouse metallothionein expression (MT1 and MT2) in renal and hepatic tissue; experiment: RT-PCR of metallothionein expression in tissue of treated mice; assay type: in vivo, FVB/NJ mice; conditions: ZNA 100 mg/kg intraperitoneal
Experimental: Real-Time PCR (RT-PCR): For experiments designed to measure gene expression, real-time PCR (RT-PCR) was conducted using a LightCycler 480 (Roche, Basel, Switzerland) and KAPA SYBR FAST qPCR Master Mix (Kapa Biosystems, Boston, Mass., USA). […] Genomic DNA was removed with a DNase digest and 1 μg of RNA was used to synthesize cDNA using a Superscript III Reverse Transcriptase kit from Invitrogen per the manufacturer's protocol; after an RNase H digestion, RT-PCR was performed in a 5 μL reaction using KAPA SYBR FAST qPCR Master Mix (Kapa Biosystems, Boston, Mass., USA). […]; Nat Protocols 2008; 3(6):1101-08. For tissue derived from mouse in vivo experiments, fresh tissue was homogenized using a TissueLyser II for 3 minutes at 30 Hz before isolating RNA.
The next experiment established the relevancy of the biological pathways targeted by ZNA in a whole organism tumor model. To establish bioactivity, the response of normal tissue to ZNA was evaluated. Non-tumor bearing FVB/NJ mice were treated with ZNA (at 100 mg/kg administered via intraperitoneal injection) or a control for either 3 or 24 hours. RT-PCR was used to assess mouse metallothionein expression (MT1 and MT2) in renal and hepatic tissue from the treated mice.

in vivo = experiment: in vivo; set-up: species or system Sprague-Dawley rats; conditions: rat
Experimental: ZNA has promising pkpd parameters. An initial pharmacokinetic (PK) analysis on ZNA was performed at 1 mg/kg IV, 5 mg/kg PO. ZNA was dosed to female Sprague-Dawley rats at either 1 mg/kg intravenously or at 5 mg/kg orally. Plasma was collected with K2EDTA and stored at −80° C. until analysis. Quantification of ZNA was performed by protein precipitation followed by ultra-high performance liquid chromatography (UHPLC) interfaced to an electrospray ionization quadrapole time-of-flight mass spectrometer (ESI-QTOF). Plasma concentrations were determined from a calibration curve using […]. The values determined were fit with Phoenix WinNonlin and pharmacokinetic values reported.
The plasma concentrations for ZNA were very low, and most samples fell below the lower limit of quantification for the assay (10.0 ng/mL). This limited the data available for fitting in WinNonlin. To increase the amount of data for fitting, values from below the curve were extrapolated to approximately 40% of the LLOQ and were used for PK fitting. The percent of the area extrapolated in the PO PK animals ranged from 34-70% which was considered quite high. […] The oral bioavailability determined was approximately 6%. This value is considered a rough estimate based upon the area extrapolated and the unusually high clearance determined. […] Possible explanations for the high clearance are binding of compound to red blood cells, extremely rapid clearance that requires collection of earlier time points to establish a more accurate CO, and extrahepatic elimination.

[2] = system: MCF-10A normal mammary epithelial cell line; experiment: Dose response, luciferase-based ATP (ATPlite) viability assay; assay type: cell-based, human; conditions: five days of treatment
[3] = system: transplanted PyMT mammary tumors; experiment: Mouse mammary tumor model (transplanted PyMT tumors), Kaplan-Meier survival; assay type: in vivo
Experimental: In vivo ZNA studies: Mouse studies were conducted with the approval of an institutional animal care and use committee. FVB/NJ mice were obtained from The Jackson Laboratory (Bar Harbor, Me., USA). In preparation for the in vivo study, EF1α-PyMT mouse mammary tumors were generated in donor mice and the tumors resected and prepared as single cells as described previously by Smith et al. (6). These cells were suspended in Matrigel (BD Biosciences) and injected (50,000 cells per 10 μL injection) into the uncleared mammary fat pad of 3-week old female recipient FVB/NJ mice. Twenty-one days following the transplant, the mice were randomized, and drug treatment was initiated; the mice were treated once a day for 21 days, and a tumor diameter ≥2 cm was established as an endpoint. ZNA (100 mg/kg) or the matched vehicle control was administered to each mouse via a 200-μL intraperitoneal injection of ZNA diluted into DMSO, then diluted into phosphate buffered saline to a final DMSO concentration of 5%. ZnSO4 was administered continuously for the 21-day treatment period to the appropriate groups via drinking water (25 mM ZnSO4.7H2O).
Statistics: The student's t-test (unpaired) was used to assess statistical significance and a p≤0.05 was considered statistically significant. Statistical significance between Kaplan-Meier survival curves was measured by the Mantel-Cox test using Prism 6.0 (GraphPad Software). The following P-values were used to annotate statistical significance: p≤0.05=*; p≤0.01=**; p≤0.001=***.
Next, the efficacy of the compound was tested in an in vivo tumor model. […] Mice were treated once a day for 21 days, and four treatment conditions were assessed: ZNA (100 mg/kg administered via intraperitoneal), ZnSO4 (25 mM administered continuously for the duration of treatment via drinking water), a combination of ZNA and ZnSO4, and a control group (PBS administered via intraperitoneal injection); a tumor diameter greater than 2 cm was established as an endpoint.

## COc1ccc(-c2c(Cc3ccccc3)[nH]/c(=N\C(=O)c3ccccc3F)n2C)cc1 [ZNA, (E)-N-(4-benzyl-5-(4-methoxyphenyl)-1-methyl-1H-imidazol-2(3H)-ylidene)-2-fluorobenzamide]
[1]; 3 hours, vs control treated mice
  MT1 and MT2 expression: increased
[1]; 24 hours
  MT1 and MT2 expression: decreased
In vivo; female, Sprague-Dawley
  bioavailability: ~6%
  half-life: 114 min
In vivo; female, Sprague-Dawley, iv
  clearance relative to hepatic blood flow: 235%
In vivo; female, Sprague-Dawley, iv, 1 mg/kg, AUCINF_obs
  AUC(0-inf): 129 ng·h/mL
In vivo; female, Sprague-Dawley, iv, 1 mg/kg, AUCall
  AUC: 119 ng·h/mL
In vivo; female, Sprague-Dawley, iv, 1 mg/kg, MRTINF_obs
  MRT inf: 2.1 h
In vivo; female, Sprague-Dawley, po
  percent of the area extrapolated: 34-70%
In vivo; female, Sprague-Dawley, po, 5 mg/kg, Cmax
  Cmax: 11.5 ng/mL
In vivo; iv
  volume of distribution: very high volume of distribution
[2]
  cell viability: largely unaffected
[3]; ZNA 100 mg/kg ip once a day for 21 days, vs control-treated group
  survival: statistically significant survival advantage
[3]; ZNA 100 mg/kg ip once a day with 25 mM ZnSO4 in drinking water, 21 days, vs ZnSO4-only group
  survival: statistically significant survival advantage
[3]; mice, ZNA 100 mg/kg alone or with ZnSO4
  general toxicity, adverse reactions, body weight: no general toxicity, adverse reactions, or decreases in body weight were observed; also recorded: without detrimental effects on mouse weight and health
